The experiment has as its target full-length human recombinant BTK (Homo sapiens (Human), UniProt Q06187). The experiment is described as follows: Inhibition of Btk enzymatic activity (biochemical enzyme assay, Caliper). As to conditions: 30° C., 60 minutes. How it is done:
The inhibitory activity of the present compounds against Btk was assessed in a biochemical enzyme assay. Assay plates in 384 well format were prepared with 8-point serial dilutions for the test compounds on a Thermo CatX workstation equipped with a Innovadyne Nanodrop Express. The assay plates were prepared by addition of 50 nl per well of compound solution in 90% DMSO. The kinase reactions were started by stepwise addition of 4.5 μl per well of peptide/ATP-solution (4 μM FITC-Ahx-[…]-NH2, 164 μM ATP) in kinase buffer (50 mM HEPES, pH 7.5, 1 mM DTT, 0.02% Tween20, 0.02% BSA, 0.6% DMSO, 10 mM beta-glycerophosphate, and 10 μM sodium orthovanadate, 18 mM MgCl2, 1 mM MnCl2) and 4.5 μl per well of enzyme solution (6.4 nM full-length human recombinant BTK) in kinase buffer. Kinase reactions were incubated at 30° C. for 60 minutes and subsequently terminated by addition of 16 μl per well of stop solution (100 mM HEPES pH 7.5, 5% DMSO, 0.1% Caliper coating reagent, 10 mM EDTA, and 0.015% Brij35). Kinase reactions were analyzed on a Caliper LC3000 workstation by separating phosphorylated and unphosphorylated peptides and kinase activities were calculated from the amounts of newly formed phospho-peptide. Inhibition data were calculated by comparison to control reactions without enzyme (100% inhibition) and without inhibitors (0% inhibition). The concentration of inhibitor required for 50% inhibition (IC50) was calculated from the inhibition in response to inhibitor concentrations.
Chain of full-length human recombinant BTK (Q06187 whole entry): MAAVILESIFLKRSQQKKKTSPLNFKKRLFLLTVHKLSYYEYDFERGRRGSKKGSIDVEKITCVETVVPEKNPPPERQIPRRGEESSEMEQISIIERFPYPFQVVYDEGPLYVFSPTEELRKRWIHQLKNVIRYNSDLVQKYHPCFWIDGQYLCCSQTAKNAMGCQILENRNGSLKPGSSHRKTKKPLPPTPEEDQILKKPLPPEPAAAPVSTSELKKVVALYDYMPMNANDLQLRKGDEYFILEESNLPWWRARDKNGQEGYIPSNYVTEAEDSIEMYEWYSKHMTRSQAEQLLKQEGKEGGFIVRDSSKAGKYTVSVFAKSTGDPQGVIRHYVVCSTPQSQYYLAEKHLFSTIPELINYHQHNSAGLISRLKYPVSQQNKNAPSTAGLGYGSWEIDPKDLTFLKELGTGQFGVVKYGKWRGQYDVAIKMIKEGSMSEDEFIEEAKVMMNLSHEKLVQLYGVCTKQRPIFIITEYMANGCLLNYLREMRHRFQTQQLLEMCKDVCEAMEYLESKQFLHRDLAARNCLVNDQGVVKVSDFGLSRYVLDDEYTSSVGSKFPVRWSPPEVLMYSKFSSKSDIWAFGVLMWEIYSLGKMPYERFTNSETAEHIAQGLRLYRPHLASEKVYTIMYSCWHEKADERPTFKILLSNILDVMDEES
As to `Cc1c(NC(=O)c2ccc(C(C)(C)C)cc2)cc(F)cc1-c1ncnc2[nH]c(C3=CCS(=O)(=O)CC3)cc12` [Example 26, 4-tert-Butyl-N-{3-[6-(3,6-dihydro-1,1-dioxido-2H-thiopyran-4-yl)-7H-pyrrolo[2,3-d]pyrimidin-4-yl]-5-fluoro-2-methyl-phenyl}-benzamide], the IC50 (as a rule, the concentration that gives 50% inhibition) is 0.035 µM.
For the compound `Cc1c(NC(=O)c2ccc(C(C)(C)C)cc2)cc(F)cc1-c1ncnc2[nH]c(C3=CCC(O)CC3)cc12` (stereo not drawn) [Example 28, 4-tert-Butyl-N-{5-fluoro-3-[6-(4-hydroxy-cyclohex-1-enyl)-7H-pyrrolo[2,3-d]pyrimidin-4-yl]-2-methyl-phenyl}-benzamide], the IC50 worked out at 0.046 µM.
Next, `Cc1c(NC(=O)c2ccc(C3CC3)cc2)cc(F)cc1-c1ncnc2[nH]c(C3=CCN(C(=O)N(C)C)CC3)cc12` [Example 29, 4-{4-[3-(4-Cyclopropyl-benzoylamino)-5-fluoro-2-methyl-phenyl]-7H-pyrrolo[2′3-d]pyrimidin-6-yl}-3,6-dihydro-2H-pyridine-1-carboxylic acid dimethylamide]: 0.013 µM; `Cc1c(NC(=O)c2ccc(C3CC3)cc2)cc(F)cc1-c1ncnc2[nH]c(C3=CCN(C(=O)N4CCCC4)CC3)cc12` [Example 30, 4-Cyclopropyl-N-(5-fluoro-2-methyl-3-{6-[1-(pyrrolidine-1-carbonyl)-1,2,3,6-tetrahydro-pyridin-4-yl]-7H-pyrrolo[2,3-d]pyrimidin-4-yl}-phenyl)-benzamide]: 0.006 µM.
For `CC(=O)OCC(=O)N1CC=C(c2cc3c(-c4cc(F)cc(NC(=O)c5ccc(C6CC6)cc5)c4C)ncnc3[nH]2)CC1` [Example 31, Acetic acid 2-(4-{4-[3-(4 cyclopropyl-benzoylamino)-5-fluoro-2-methyl-phenyl]-7H-pyrrolo[2,3-d]pyrimidin-6-yl}-3,6-dihydro-2H-pyridin-1-yl)-2-oxo-ethyl ester], the IC50 was 0.003 µM.
With `Cc1c(NC(=O)c2ccc(S(F)(F)(F)(F)F)cc2)cc(F)cc1-c1ncnc2[nH]c(C3=CCN(C(=O)N4CCCC4)CC3)cc12` [Example 34, N-(5-Fluoro-2-methyl-3-{6-[1-(pyrrolidine-1-carbonyl)-1,2,3,6-tetrahydro-pyridin-4-yl]-7H-pyrrolo[2,3-d]pyrimidin-4-yl}-phenyl)-4-(pentafluoro-sulfanyl)-benzamide], the IC50 is 0.034 µM.
For `CC(=O)OCC(=O)N1CC=C(c2cc3c(-c4cc(F)cc(NC(=O)c5ccc(S(F)(F)(F)(F)F)cc5)c4C)ncnc3[nH]2)CC1` [Example 35, Acetic acid 2-[4-(4-{5-fluoro-2-methyl-3-[4-(pentafluoro-sulfanyl)-benzoylamino]-phenyl}-7H-pyrrolo[2,3-d]pyrimidin-6-yl)-3,6-dihydro-2H-pyridin-1-yl]-2-oxo-ethyl ester], the IC50 worked out at 0.014 µM.
For the compound `Cc1c(NC(=O)c2ccc(S(F)(F)(F)(F)F)cc2)cc(F)cc1-c1ncnc2[nH]c(C3=CCN(C(=O)CO)CC3)cc12` [Example 36, N-(5-Fluoro-3-{6-[1-(2-hydroxy-acetyl)-1,2,3,6-tetrahydro-pyridin-4-yl]-7H-pyrrolo[2,3-d]pyrimidin-4-yl}-2-methyl-phenyl)-4-(pentafluoro-sulfanyl)-benzamide], the IC50 was 0.004 µM.
Then `CN(C)C(=O)N1CC=C(c2cc3c(-c4cccc(NC(=O)c5ccc(C(C)(C)C)cc5)c4CO)ncnc3[nH]2)CC1` [Example 37, 4-{4-[3-(4-tert-Butyl-benzoylamino)-2-hydroxymethyl-phenyl]-7H-pyrrolo[2,3-d]pyrimidin-6-yl}-3,6-dihydro-2H-pyridine-1-carboxylic acid dimethylamide], with 0.026 µM; and `Cc1c(NC(=O)c2ccc(C(C)(C)C)cc2)cc(F)cc1-c1ncnc2[nH]c(C3=CCNCC3)cc12` [Example 40, 4-tert-Butyl-N-{5-fluoro-2-methyl-3-[6-(1,2,3,6-tetrahydro-pyridin-4-yl)-7H-pyrrolo[2,3-d]pyrimidin-4-yl]-phenyl}-benzamide], with 0.019 µM.
In the case of `Cc1c(NC(=O)c2ccc(C(C)(C)C)cc2)cc(F)cc1-c1ncnc2[nH]c(C3=CCN(C(=O)N(C)C)CC3)cc12` [Example 41, 4-{4-[3-(4-tert-Butyl-benzoylamino)-5-fluoro-2-methyl-phenyl]-7H-pyrrolo[2,3-d]pyrimidin-6-yl}-3,6-dihydro-2H-pyridine-1-carboxylic acid dimethylamide], the IC50 turned out to be 0.023 µM.
On to `Cc1c(NC(=O)c2ccc(C(C)(C)C)cc2)cc(F)cc1-c1ncnc2[nH]c(C3=CCN(S(C)(=O)=O)CC3)cc12` [Example 42, 4-tert-Butyl-N-{5-fluoro-3-[6-(1-methanesulfonyl-1,2,3,6-tetrahydro-pyridin-4-yl)-7H-pyrrolo[2,3-d]pyrimidin-4-yl]-2-methyl-phenyl}-benzamide], for which the IC50 turned out to be 0.03 µM.
Consider `Cc1c(NC(=O)c2ccc(C(C)(C)C)cc2)cc(F)cc1-c1ncnc2[nH]c(C3=CCN(S(=O)(=O)N(C)C)CC3)cc12` [Example 43, 4-tert-Butyl-N-{3-[6 (1 dimethylsulfamoyl-1,2,3,6-tetrahydro-pyridin-4-yl)-7H-pyrrolo[2,3-d]pyrimidin-4-yl]-5-fluoro-2-methyl-phenyl}-benzamide], for which the IC50 came out at 0.14 µM.
As to `Cc1c(NC(=O)c2ccc(C(C)(C)C)cc2)cccc1-c1ncnc2[nH]c(C3=CCN(S(C)(=O)=O)CC3)cc12` [Example 44, 4-tert-Butyl-N-{3-[6-(1 methanesulfonyl-1,2,3,6-tetrahydro-pyridin-4-yl)-7H-pyrrolo[2,3-d]pyrimidin-4-yl]-2-methyl-phenyl}-benzamide], the IC50 is 0.017 µM.
As to `CN(C)C(=O)N1CC=C(c2cc3c(-c4cccc(N5CCc6cc(C(C)(C)C)ccc6C5=O)c4CO)ncnc3[nH]2)CC1` [Example 45, 4-{4-[3-(6-tert-Butyl-1-oxo-3,4-dihydro-1H-isoquinolin-2-yl)-2-hydroxymethyl-phenyl]-7H-pyrrolo[2,3-d]pyrimidin-6-yl}-3,6-dihydro-2H-pyridine-1-carboxylic acid dimethylamide], the IC50 amounted to 0.008 µM.
Consider `CN(C)C(=O)N1CC=C(c2cc3c(-c4cccc(N5CCc6cc(C7CC7)ccc6C5=O)c4CO)ncnc3[nH]2)CC1` [Example 46, 4-{4-[3-(6-Cyclopropyl-1-oxo-3,4-dihydro-1H-isoquinolin-2-yl)-2-hydroxymethyl-phenyl]-7H-pyrrolo[2,3-d]pyrimidin-6-yl}-3,6-dihydro-2H-pyridine-1-carboxylic acid dimethylamide], for which the IC50 turned out to be 0.017 µM.
With `CN(C)C(=O)N1CC=C(c2cc3c(-c4cccc(N5CCc6cc(C(C)(C)O)ccc6C5=O)c4CO)ncnc3[nH]2)CC1` [Example 47, 4-(4-{2-Hydroxymethyl-3-[6-(1-hydroxy-1-methyl-ethyl)-1-oxo-3,4-dihydro-1H-isoquinolin-2-yl]-phenyl}-7H-pyrrolo[2,3-d]pyrimidin-6-yl)-3,6-dihydro-2H-pyridine-1-carboxylic acid dimethylamide], the IC50 stood at 0.002 µM.
Take `CC(C)(C)c1ccc(C(=O)Nc2cccc(-c3ncnc4[nH]c(C5=CCOCC5)cc34)c2CO)cc1` [Example 48, 4-tert-Butyl-N-{3-[6-(3,6-dihydro-2H-pyran-4-yl)-7H-pyrrolo[2,3-d]pyrimidin-4-yl]-2-hydroxymethyl-phenyl}-benzamide]: the IC50 is 0.007 µM.
Consider `Cc1c(NC(=O)c2ccc(C(C)(C)C)cc2)cc(F)cc1-c1ncnc2[nH]c(C3=CCOCC3)cc12` [Example 49, 4-tert-Butyl-N-{3-[6-(3,6-dihydro-2H-pyran-4-yl)-7H-pyrrolo[2,3-d]pyrimidin-4-yl]-5-fluoro-2-methyl-phenyl}-benzamide], for which the IC50 worked out at 0.099 µM.
Consider `Cc1c(NC(=O)c2ccc(N(C)C)cc2)cc(F)cc1-c1ncnc2[nH]c(C3=CCOCC3)cc12` [Example 50, N-{3-[6-(3,6-Dihydro-2H-pyran-4-yl)-7H-pyrrolo[2,3-d]pyrimidin-4-yl]-5-fluoro-2-methyl-phenyl}-4-dimethylamino-benzamide], for which the IC50 is 0.047 µM.
On to `Cc1c(NC(=O)c2ccc(C(C)(C)C)cc2)cccc1-c1ncnc2[nH]c(C3=CCSCC3)cc12` [Example 51, 4-tert-Butyl-N-{3-[6-(3,6-dihydro-2H-thiopyran-4-yl)-7H-pyrrolo[2,3-d]pyrimidin-4-yl]-2-methyl-phenyl}-benzamide], for which the IC50 stood at 0.047 µM.
Consider `Cc1c(NC(=O)c2ccc(C(C)(C)C)cc2)cccc1-c1ncnc2[nH]c(C3=CC[S+]([O-])CC3)cc12` (stereo not drawn) [Example 52, 4-tert-Butyl-N-{2-methyl-3-[6-(3,6-dihydro-1-oxido-2H-thiopyran-4-yl)-7H-pyrrolo[2,3-d]pyrimidin-4-yl]-phenyl}-benzamide], for which the IC50 worked out at 0.024 µM.
As for `Cc1c(NC(=O)c2ccc(C(C)(C)C)cc2)cccc1-c1ncnc2[nH]c(C3=CCS(=O)(=O)CC3)cc12` [Example 53, 4-tert-Butyl-N-{3-[6-(3,6-dihydro-1,1-dioxido-2H-thiopyran-4-yl)-7H-pyrrolo[2,3-d]pyrimidin-4-yl]-2-methyl-phenyl}-benzamide], the IC50 came to 0.064 µM.
On to `CC(C)(C)c1ccc(C(=O)Nc2cccc(-c3ncnc4[nH]c(C5=CCC6(CC5)OCCO6)cc34)c2CO)cc1` [Example 54, 4-tert-Butyl-N-{3-[6-(1,4-dioxa-spiro[4.5]dec-7-en-8-yl)-7H-pyrrolo[2,3-d]pyrimidin-4-yl]-2-hydroxymethyl-phenyl}-benzamide], for which the IC50 stood at 0.024 µM.

The values are drawn from US9233111B2, “Pyrrolo pyrimidine derivatives” (NOVARTIS AG, priority 2011, dated 2016).
